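A five-concentration, 48-hour dose response in 96-well plates underlies each endpoint, interpolated linearly between surrounding concentrations. The concentration for 50% growth inhibition is given as GI50.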 The source made the active and inactive calls. Rule as the data show it: active = GI50 up to about 1.1 µM and inactive = higher.
Experiments:
Assay in all cases: NCI anticancer screen, dose series, 48 h
IGROV-1 = tested on: IGROV-1
HCT-116 = tested on: HCT-116
A549 = tested on: A549
COLO 205 = tested on: COLO 205
SF-539 = tested on: SF-539
HCT-15 = tested on: HCT-15
LOX IMVI = tested on: LOX IMVI
OVCAR-8 = tested on: OVCAR-8
786-0 = tested on: 786-0
SW-620 = tested on: SW-620
SNB-75 = tested on: SNB-75
HOP-62 = tested on: HOP-62
HT-29 = tested on: HT-29
UO-31 = tested on: UO-31
NCI-H226 = tested on: NCI-H226
M14 = tested on: M14
HCC 2998 = tested on: HCC 2998
MOLT-4 = tested on: MOLT-4

| Compound | GI50 (IGROV-1) | GI50 (HCT-116) | GI50 (A549) | GI50 (COLO 205) | GI50 (SF-539) | GI50 (HCT-15) | GI50 (LOX IMVI) | GI50 (OVCAR-8) | GI50 (786-0) | GI50 (SW-620) | GI50 (SNB-75) | GI50 (HOP-62) | GI50 (HT-29) | GI50 (UO-31) | GI50 (NCI-H226) | GI50 (M14) | GI50 (HCC 2998) | GI50 (MOLT-4) |
| --- | --- | --- | --- | --- | --- | --- | --- | --- | --- | --- | --- | --- | --- | --- | --- | --- | --- | --- |
| C=C(C)CC(C(=O)O)c1ccc(C)cc1 (centres undefined) | > 100 µM (inactive) | > 100 µM (inactive) | > 100 µM (inactive) | > 100 µM (inactive) | > 100 µM (inactive) | > 100 µM | > 100 µM (inactive) | > 100 µM (inactive) | > 100 µM (inactive) | > 100 µM (inactive) | > 100 µM (inactive) | > 100 µM (inactive) | > 100 µM (inactive) | – | – | – | – | – |
| S=C1OC2CCCC[C@H]2O1 (some centres undefined) | > 100 µM (inactive) | > 100 µM (inactive) | > 100 µM (inactive) | > 100 µM (inactive) | > 100 µM (inactive) | – | > 100 µM (inactive) | > 100 µM (inactive) | > 100 µM (inactive) | > 100 µM (inactive) | > 100 µM (inactive) | > 100 µM (inactive) | > 100 µM (inactive) | > 100 µM (inactive) | > 100 µM (inactive) | > 100 µM (inactive) | > 100 µM (inactive) | > 100 µM (inactive) |
| Sc1nnc(-c2ccccc2)n1/N=C\c1ccc(-c2ccc(Cl)cc2)o1 | > 100 µM (inactive) | > 100 µM (inactive) | > 100 µM (inactive) | > 100 µM (inactive) | > 100 µM (inactive) | – | > 100 µM (inactive) | > 100 µM (inactive) | > 100 µM (inactive) | > 100 µM (inactive) | > 100 µM (inactive) | > 100 µM (inactive) | > 100 µM (inactive) | > 100 µM (inactive) | > 100 µM (inactive) | > 100 µM (inactive) | – | > 100 µM (inactive) |
| CN(C)CC1CCCC/C1=N/OC(=O)c1ccc(Cl)c(Cl)c1 (centres undefined) | > 100 µM (inactive) | > 100 µM (inactive) | > 100 µM (inactive) | > 100 µM (inactive) | > 100 µM (inactive) | > 100 µM | > 100 µM (inactive) | > 100 µM (inactive) | > 100 µM (inactive) | > 100 µM (inactive) | 33.3 µM (inactive) | > 100 µM (inactive) | > 100 µM (inactive) | 70.6 µM (inactive) | > 100 µM (inactive) | > 100 µM (inactive) | > 100 µM (inactive) | – |
| CCOc1cccc2cccnc12 | > 100 µM (inactive) | > 100 µM (inactive) | > 100 µM (inactive) | > 100 µM (inactive) | > 100 µM (inactive) | – | > 100 µM (inactive) | > 100 µM (inactive) | > 100 µM (inactive) | > 100 µM (inactive) | > 100 µM (inactive) | > 100 µM (inactive) | > 100 µM (inactive) | > 100 µM (inactive) | > 100 µM (inactive) | > 100 µM (inactive) | > 100 µM (inactive) | > 100 µM (inactive) |
| Nc1ccc2c(c1)CC1c3ccccc3C(C2)c2ccccc21 | > 100 µM (inactive) | > 100 µM (inactive) | > 100 µM (inactive) | > 100 µM (inactive) | > 100 µM (inactive) | > 100 µM | > 100 µM (inactive) | > 100 µM (inactive) | > 100 µM (inactive) | > 100 µM (inactive) | > 100 µM (inactive) | > 100 µM (inactive) | > 100 µM (inactive) | > 100 µM (inactive) | – | > 100 µM (inactive) | > 100 µM (inactive) | > 100 µM (inactive) |
| CCCCCCCCCCCCCCCCc1c(C(=O)OC)[nH]c(=S)[nH]c1=O | > 50 µM (inactive) | > 50 µM (inactive) | > 50 µM (inactive) | > 50 µM (inactive) | > 50 µM (inactive) | > 50 µM | > 50 µM (inactive) | > 50 µM (inactive) | > 50 µM (inactive) | > 50 µM (inactive) | > 50 µM (inactive) | > 50 µM (inactive) | > 50 µM (inactive) | > 50 µM (inactive) | – | > 50 µM (inactive) | > 50 µM (inactive) | > 50 µM (inactive) |
| COc1ccc(/C(=C/n2ccnc2)C(O)c2ccc(OC)c(OC)c2)cc1OC (centres undefined) | > 100 µM (inactive) | – | – | > 100 µM (inactive) | 78 µM (inactive) | > 100 µM | > 100 µM (inactive) | > 100 µM (inactive) | > 100 µM (inactive) | > 100 µM (inactive) | 51.9 µM (inactive) | > 100 µM (inactive) | > 100 µM (inactive) | > 100 µM (inactive) | > 100 µM (inactive) | > 100 µM (inactive) | – | > 100 µM (inactive) |

From ChEMBL document CHEMBL1201862, “PubChem BioAssay data set” (2004)
